Assays:
MDR1 = test: in vitro; type: in vitro ADME; details: dog, MDCK-MDR1
Experimental: MDR1-MDCK cells obtained from the NIH (Rockville, Md., USA) are used between passage numbers 6-30. Cells are seeded onto Millipore Multiscreen Transwell plates at 3.4×10^5 cells/cm^2. The cells are cultured in DMEM and media is changed on day 3. On day 4 the permeability study is performed. Cell culture and assay incubations are carried out at 37° C. in an atmosphere of 5% CO2 with a relative humidity of 95%. On the day of the assay, the monolayers are prepared by rinsing both basolateral and apical surfaces twice with Hanks Balanced Salt Solution (HBSS) at the desired pH warmed to 37° C. Cells are then incubated with HBSS at the desired pH in both apical and basolateral compartments for 40 min to stabilise physiological parameters.
The dosing solutions are prepared by diluting test compound with assay buffer to give a final test compound concentration of 10 μM (final DMSO concentration of 1% v/v). The fluorescent integrity marker lucifer yellow is also included in the dosing solution. Analytical standards are prepared from test compound DMSO dilutions and transferred to buffer, maintaining a 1% v/v DMSO concentration.
For assessment of A-B permeability, HBSS is removed from the apical compartment and replaced with test compound dosing solution. The apical compartment insert is then placed into a companion plate containing fresh buffer (containing 1% v/v DMSO). For assessment of B-A permeability, FIBSS is removed from the companion plate and replaced with test compound dosing solution. Fresh buffer (containing 1% v/v DMSO) is added to the apical compartment insert, which is then placed into the companion plate. At 60 min the apical compartment inserts and the companion plates are separated and apical and basolateral samples diluted for analysis. Test compound permeability is assessed in duplicate. Compounds of known permeability characteristics are run as controls on each assay plate.
Test and control compounds are quantified by LC-MSMIS cassette analysis using an 8-point calibration with appropriate dilution of the samples. The starting concentration (C0) is determined from the dosing solution and the experimental recovery calculated from C0 and both apical and basolateral compartment concentrations. The integrity of the monolayer throughout the experiment is checked by monitoring lucifer yellow permeation using fluorimetric analysis. Lucifer yellow permeation is high if monolayers have been damaged.

RSV A2 VR-1540 = test: RSV plaque reduction assay; type: cell-based; details: human respiratory syncytial virus; Strain A2; n = 1; HEp-2 cells
Experimental: HEp-2 cells (ATCC, CCL23) were passaged in flasks and seeded in 96-well plates in DMEM containing antibiotics and supplemented with 10% FBS. During inoculation and subsequent incubation, cells were cultured in DMEM containing 3% FBS. 100 plaque forming unit (PFU)/well of RSV (RSV A2 VR-1540) was mixed with ten serial dilutions of compound. Subsequently, 100 μL of the virus/compound mixtures was added to confluent HEp-2 cell monolayers. The cells and virus/compound mixtures were incubated at 35° C. in a humidified 5% CO2 incubator for 1 day.
Cells were washed twice with PBS before adding 50% v/v EtOH/MeOH, and then stored at −20° C. On the day of the staining, fixative was first removed from the plates. Plates were washed 3× with PBS. A pre-titrated amount of the primary antibody was added in 60 μL PBS/2% milk powder, and plates incubated for 1 h at […]. The plates were washed 3× with PBS/0.05% Tween20 before addition of goat anti-mouse horse radish peroxidase in 60 μL PBS/2% milk powder, and incubated for 1 h at rt. Following three wash steps with PBS/0.05% Tween20, 60 μL ready-to-use TrueBlue was added and plates were incubated at rt for 10-15 min before adding MilliQ water. Plates were washed once with water, incubated for 30-60 min and after removal of water, air-dried in the dark.
Plates were scanned and analyzed using the Immunospot S6 UV analyzer, which is equipped with BioSpot analysis software for counting immunostained plaques (virospots). Plaque counts were used to calculate % infection relative to the mean of the spot count (SC) in the virus control wells for RSV. IC50/IC90 values were calculated as 50% or 90% reduction in signal, respectively, by interpolation of inhibition curves fitted with a 4-parameter nonlinear regression with a variable slope in GraphPad 5.0 (Prism).

[1] = Liver microsomal stability, dog; type: in vitro ADME; details: pooled liver microsomes, pH 7.4; dog liver microsomes 0.5 mg/mL; 3 μM compound; read-out: Liver Microsoinal Stability t1/2, dog
Experimental: Pooled liver microsomes are purchased from a reputable commercial supplier and stored at −80° C. prior to use. Microsomes (final protein concentration 0.5 mg/mL), 0.1 M phosphate buffer pH 7.4 and test compound (final substrate concentration 3 μM; final DMSO concentration 0.25%) are pre-incubated at 37° C. prior to the addition of NADPH (final concentration 1 mM) to initiate the reaction. The final incubation volume is 50 uL. A control incubation is included for each compound tested where 0.1 M phosphate buffer pH 7.4 is added instead of NADPH (minus NADPH). Two control compounds are included with each species. All incubations are performed singularly for each test compound. Each compound is incubated for 0, 5, 15, 30 and 45 min. The control (minus NADPH) is incubated for 45 min only. The reactions are stopped by transferring 20 μL of incubate to 60 μL MeOH at the appropriate time points. The termination plates are centrifuged at 2,500 rpm for 20 min at 4° C. to precipitate the protein. Following protein precipitation, the sample supernatants are combined in cassettes of up to 4 compounds, internal standard is added and samples analysed by LC-MS/MS. From a plot of In peak area ratio (compound peak area/internal standard peak area) against time, the gradient of the line is determined. Subsequently, half-life and intrinsic clearance are calculated.

Structure (SMILES)	Papp A→B at 60 min, 10 μM (MDR1)	Papp B→A at 60 min, 10 μM (MDR1)	IC50 (RSV A2 VR-1540)	IC90 (RSV A2 VR-1540)	half-life at 3 μM [1]
CCS(=O)(=O)N1CCC(n2c(CN3C(=O)C4(CC4)c4ccc(F)cc43)nc3cc(Cl)ccc32)CC1 [Compound 35, 1′-({5-Chloro-1-[1-(ethanesulfonyl)piperidin-4-yl]-1H-1,3-benzodiazol-2-yl}methyl)-6′-fluoro-1′,2′-dihydrospiro[cyclopropane-1,3′-indole]-2′-one]	12.7 ×10⁻⁶ cm/s	22.8 ×10⁻⁶ cm/s	0.87 nM	5.2 nM	2.77 h
CS(=O)(=O)N1CCC(n2c(CN3C(=O)C4(CC4)c4ccc(F)cc43)nc3cc(Cl)ccc32)CC1 [Compound 33, 1′-{[5-Chloro-1-(1-methanesulfonylpiperidin-4-yl)-1H-1,3-benzodiazol-2-yl]methyl}-6′-fluoro-1′,2′-dihydrospiro[cyclopropane-1,3′-indole]-2′-one]	12.4 ×10⁻⁶ cm/s	35.5 ×10⁻⁶ cm/s	0.49 nM	4.4 nM	3.1 h

Source: patent publication US11078189B2, “Pharmaceutical compounds” (REVIRAL LIMITED, priority 2017, dated 2021)
